{"source": "patent US20190150439A1", "about": "“SOLUBLE LIQUID FORMULATIONS OF QUINCLORAC AMMONIUM SALTS” (BASF SE, priority 2012, published 2019)", "origin": "cited, not measured here", "details": "pH 7 at 20° C.", "data": [{"compound": "O=C(O)c1c(Cl)ccc2cc(Cl)cnc12", "note": "[Quinclorac, 3,7-dichloro-8-quinolinecarboxylic acid]", "values": [{"measurement": "solubility in water", "result": 0.065, "unit": "mg/kg"}]}]}
